The test system of this test is mice. Briefly: Neuropharmacological Assay (SmartCube): automated behavioral signature of compound-treated mice compared with a database of reference drug classes. Format: in vivo. Particulars: for minimal effective dose: Mus musculus, ip. The procedure, abridged:
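Probabilities of matching each neuropharmacological class (e.g. anxiolytic, antidepressant) come from algorithmic analysis of digitally recorded behaviour, reported for 3.0 mg/kg. Compounds were given intraperitoneally in a Pharmasolve/PEG/propylene glycol vehicle 15 min pre-test. Minimal effective dose is the lowest dose reaching 45% or more total activity.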

[1] abbreviates: minimal effective dose: dose having 45% or more total activity in SmartCube, i.p., if only one dose tested, that dose is shown, read-out: MED.
The mark [2] stands for this setting: SmartCube class probability, 3.0 mg/kg i.p., 15 min before test.
[3] abbreviates: SmartCube class probability, 3.0 mg/kg i.p., 15 min before test, hydrochloride, 3 mg/kg.
Where [4] appears, read: dose having 45% or more total activity in SmartCube, i.p., if only one dose was tested, that dose is shown, hydrochloride.
Where [5] appears, read: probability that activity matches this class of agents, 3.0 mg/kg i.p., 15 min before test.
Setting [6] is: probability that activity matches this class of agents, 3.0 mg/kg i.p., 15 min before test, hydrochloride, 3 mg/kg.
[7] abbreviates: SmartCube probability class, 3.0 mg/kg dose, i.p. 15 min before the behavioral test.

SMILES strings stand for the structures. Counter-ions that a name gives are not always drawn. Like-named read-outs stand apart in the source and are kept apart here.

Regarding `CNC1CCc2c(Cl)csc2C1` (single isomer, unassigned) [Compound 198, 3-chloro-N-methyl-4,5,6,7-tetrahydrobenzothiophen-6-amine hydrochloride], under setting [1], the minimal effective dose is less than 3 mg/kg. Also, under setting [2], the AD result is given as “ND (^ <4%)”, the AG result is on record as “ND (^ <4%)”, the AN entry is reported as “ND (^ <4%)” and the AX entry is listed as “ND (^ <4%)”. For the same molecule, under setting [2], the CE result is listed as “ND (^ <4%)”, the MS entry is reported as “ND (^ <4%)”, the PS entry is listed as “ND (^ <4%)” and the SH result is “ND (^ <4%)”. Besides, the UK entry under setting [2] is “ND (^ <4%)”. For the same molecule, under setting [3], the AP entry is “++++ (≥74%)” and the HL entry is listed as “ND (^ <4%)”.
As to `Cl.c1scc2c1CCC(NC1CC1)C2` (single isomer, unassigned) [Compound 124, N-cyclopropyl-4,5,6,7-tetrahydro-2-benzothiophen-5-amine hydrochloride], under setting [4], the “MED (minimal effective dose)” value was determined as 3 mpk. Besides, under setting [5], the AG result was “ND (^ <4%)”, the AN entry is “ND (^ <4%)”, the AP result is reported as “ND (^ <4%)” and the AX result was “ND (^ <4%)”. Besides, under setting [5], the CE entry is “ND (^ <4%)”, the HL entry is recorded as “ND (^ <4%)”, the MS result is “ND (^ <4%)” and the PS result is reported as “ND (^ <4%)”. The SH result under setting [5] was “ND (^ <4%)”. Further, under setting [6], the AD result is listed as “ND (^ <4%)” and the UK result is reported as “+++ (≥49%)”.
As for `CNC1CCc2c(F)sc(F)c2C1` (single isomer, unassigned) [Compound 78, 1,3-difluoro-N-methyl-4,5,6,7-tetrahydro-2-benzothiophen-5-amine hydrochloride], under setting [4], the “MED (minimal effective dose)” value is reported as 1 mpk. Moreover, under setting [5], the AG entry is on record as “ND (^ <4%)”, the AN entry is recorded as “ND (^ <4%)”, the AP entry is “++ (≥24%)” and the CE result was “ND (^ <4%)”. Under setting [5], the HL entry is “ND (^ <4%)”, the MS entry is listed as “ND (^ <4%)”, the PS entry was “ND (^ <4%)” and the SH result was “ND (^ <4%)”. Further, under setting [6], the AD entry was “ND (^ <4%)”, the AX result is “++ (≥24%)” and the UK result is listed as “+ (≥4%)”.
Consider `CNC1CCc2ccsc2C1.Cl` (single isomer, unassigned) [Compound 9, N-methyl-4,5,6,7-tetrahydrobenzothiophen-6-amine hydrochloride], for which the “MED (minimal effective dose)” value under setting [4] is 0.1 mpk. Further, under setting [5], the AD result is on record as “++ (≥24%)”, the AG result is “ND (^ <4%)”, the AN entry is reported as “ND (^ <4%)” and the AP entry was “++ (≥24%)”. Under setting [5], the MS result is reported as “ND (^ <4%)” and the UK result is “ND (^ <4%)”. Also, under setting [6], the AX result is “+ (≥4%)”, the CE result was “+ (≥4%)”, the HL result is on record as “+ (≥4%)” and the PS result is recorded as “+ (≥4%)”.
As for `CNC1CCc2csc(C)c2C1.Cl` (single isomer, unassigned) [Compound 41, N, 3-dimethyl-4,5,6,7-tetrahydro-2-benzothiophen-5-amine hydrochloride], where the note is “dose having 45% or more total activity in SmartCube, i.p., if only one dose was tested, that dose is shown”, the “MED (minimal effective dose)” value was 1.0 mpk. For the same molecule, under setting [5], the AG result is reported as “ND (^ <4%)”, the AN result is reported as “ND (^ <4%)”, the AP entry was “++ (≥24%)” and the CE result is given as “ND (^ <4%)”. Moreover, under setting [5], the HL entry is on record as “ND (^ <4%)”, the MS entry was “ND (^ <4%)”, the PS result is listed as “ND (^ <4%)” and the SH entry is recorded as “ND (^ <4%)”. The UK entry under setting [5] is “ND (^ <4%)”. Under setting [6], the AD entry is reported as “+++ (≥49%)” and the AX entry is listed as “ND (^ <4%)”.
On to `CNC1(C)CCc2sccc2C1` (single isomer, unassigned) [Compound 178, N, 5-dimethyl-6,7-dihydro-4H-benzothiophen-5-amine hydrochloride], for which, under setting [2], the AG entry is listed as “ND (^ <4%)”, the AP result is reported as “ND (^ <4%)”, the AX entry is “ND (^ <4%)” and the CE result is recorded as “ND (^ <4%)”. In addition, under setting [2], the HL result is given as “ND (^ <4%)”, the MS entry is recorded as “ND (^ <4%)”, the SH entry was “ND (^ <4%)” and the UK entry is listed as “ND (^ <4%)”. Also, under setting [3], the AD result was “+ (≥4%)”, the AN result is given as “ND (^ <4%)” and the PS result was “++++ (≥74%)”. For the setting “minimal effective dose: dose having 45% or more total activity in SmartCube, i.p., if only one dose tested, that dose is shown, hydrochloride”, this molecule gave an MED of 1 mpk.
`CCc1scc2c1CCC(NC)C2` (single isomer, unassigned) [Compound 113, 1-ethyl-N-methyl-4,5,6,7-tetrahydro-2-benzothiophen-5-amine hydrochloride]: under setting [4], the “MED (minimal effective dose)” value is recorded as 0.3 mpk. Under setting [5], the AG entry is “ND (^ <4%)”, the AN result is given as “ND (^ <4%)”, the AX entry is “ND (^ <4%)” and the CE result is recorded as “ND (^ <4%)”. Under setting [5], the HL result is “ND (^ <4%)”, the MS result is “ND (^ <4%)”, the PS entry is “ND (^ <4%)” and the SH entry is reported as “ND (^ <4%)”. For the same molecule, under setting [5], the UK result is recorded as “ND (^ <4%)”. Under setting [6], the AD result is “+ (≥4%)” and the AP result was “++++ (≥74%)”.
`CNC1CCc2csc(Cl)c2C1` (single isomer, unassigned) [Compound 55, 3-chloro-N-methyl-4,5,6,7-tetrahydro-2-benzothiophen-5-amine hydrochloride]: the minimal effective dose (dose having 45% or more total activity in SmartCube, i.p., if only one dose was tested, that dose is shown, read-out: MED (minimal effective dose)) is 1 mg/kg. Also, under setting [5], the AG result was “ND (^ <4%)”, the AP result is listed as “++ (≥24%)”, the CE result is given as “ND (^ <4%)” and the HL entry was “ND (^ <4%)”. Also, under setting [5], the MS result is recorded as “ND (^ <4%)”, the PS entry is on record as “ND (^ <4%)”, the SH entry was “ND (^ <4%)” and the UK entry is on record as “ND (^ <4%)”. Besides, under setting [6], the AD result is “++ (≥24%)”, the AN result is “ND (^ <4%)” and the AX entry is “+ (≥4%)”.
Regarding `CNC1(C)COc2cc(C)sc2C1` (centres unmarked) [Compound 285, N, 2,6-trimethyl-5,7-dihydrothieno[3,2-b]pyran-6-amine hydrochloride], the minimal effective dose (minimal effective dose: dose having 45% or more total activity in SmartCube, i.p., if only one dose was tested, that dose is shown, read-out: MED) was 3 mg/kg. Under setting [7], the AD result is recorded as “ND (^ <4%)”, the AG entry is listed as “ND (^ <4%)”, the AN result was “ND (^ <4%)” and the AP entry was “ND (^ <4%)”. Besides, under setting [7], the AX result is listed as “ND (^ <4%)”, the CE entry is reported as “ND (^ <4%)”, the HL result was “ND (^ <4%)” and the MS result is “ND (^ <4%)”. Also, under setting [7], the PS entry is “ND (^ <4%)”, the SH entry was “ND (^ <4%)” and the UK entry is recorded as “+++ (≥49%)”.
For `CCc1csc2c1CC(NC)CC2` (centres unmarked) [Compound 207, 3-ethyl-N-methyl-4,5,6,7-tetrahydrobenzothiophen-5-amine hydrochloride], the minimal effective dose under setting [1] was more than 3 mg/kg. Further, under setting [2], the AD result is “ND (^ <4%)”, the AG result is “ND (^ <4%)”, the AN result is on record as “ND (^ <4%)” and the AP result is on record as “ND (^ <4%)”. Under setting [2], the AX entry is recorded as “ND (^ <4%)”, the CE result is listed as “ND (^ <4%)”, the HL entry was “ND (^ <4%)” and the MS entry is listed as “ND (^ <4%)”. Under setting [2], the PS entry is on record as “ND (^ <4%)”, the SH entry is “ND (^ <4%)” and the UK entry is on record as “+ (≥4%)”.
